Laboratory results published in publication PMC13266999, “Designing Antibiotics with Inherent Resistance to Efflux as a Strategy to Revive Discovery against Multidrug-Resistant Pathogens” (Journal of Medicinal Chemistry, 2026).
Values after ≈ are worked out from the molar mass of the structure shown. Read-outs that look alike come from different tables or passages of the source.

What was measured:
[1] = test system: Acinetobacter baumannii; test: MIC (microbroth dilution); assay type: cell-based
Summary of the method: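 Microbroth dilution in tryptic soy broth; Streptococcus spp. in cation-adjusted Mueller Hinton broth with 2.5% lysed horse blood, inocula from overnight stationary-phase cultures. MIC is lowest concentration without visible growth, OD600 read. Parallel MICs run with 30 μg/mL polymyxin B nonapeptide (final) as outer-membrane permeabilizer.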

[2] = test system: K. pneumoniae; test: MIC (microbroth dilution); assay type: cell-based, Klebsiella pneumoniae
Description: All bacteria were maintained on tryptic soy agar (TSA), except Streptococcus spp., which were maintained on Columbia agar plates containing 5% horse blood. […] Bacteria were grown to stationary phase in liquid culture overnight, with shaking at 200 rpm, before being back diluted to the relevant starting concentration for each assay below. MICs were measured by the microbroth dilution method. […] Absorbance at OD600 was read on a CLARIOstar spectrophotometer (BMG Labtech) and the MIC was defined as the minimum concentration of compound where no visible growth was detected. […] MICs were also performed in the presence of the outer membrane permeator, polymyxin b nonapeptide (PMBN) following the same MIC method but with the following variation. The 2-fold dilution series of compound was prepared as above, then 50 μL of PMBN at a final concentration of 30 μg/mL was added to relevant wells, while 50 μL/well of blank media was added to the remaining wells. Bacteria were then added at 50 μL/well for a starting concentration as above. […] The MICs were read and defined as above. All animal procedures were performed by the contract research organization Pharmacology Discovery Services Taiwan in accordance with the Guide for the Care and Use of Laboratory Animals. The procedures were approved by the Institutional Ethics Committee of Pharmacology Discovery Services Taiwan, Ltd. (approval no. AB127662), in compliance with animal welfare legislation in Taiwan.

[3] = test system: E. faecium; test: Mutation frequency and agar MIC; assay type: cell-based; settings: NCTC 12204
Description: (§1) Mutation frequencies were performed on solid media at supra-inhibitory concentrations. First, the agar MIC was performed to account for any issues in solubility of compounds in solid media. Agar plates were prepared with 2-fold dilutions of compound.
(§2) For the mutation frequency assay, bacteria from an overnight culture were grown to mid exponential phase in liquid broth, then 100 μL was spread onto an agar plate containing compound at concentrations above the agar MIC. A Miles-Misra was also conducted on an antibiotic-free agar plate to determine the CFU/mL of the starting population. […] The mutation frequency was calculated by dividing the number of colonies on supra inhibitory con-centration plates by the starting population.

[4] = test system: K. pneumoniae; test: Mutation frequency and agar MIC; assay type: cell-based; settings: M6
Description: as §1, §2

[5] = test system: MRSA ATCC 33591; test: Neutropenic murine thigh infection model; settings: oral 50 mg/kg TID at 2, 8, and 14 h postinfection; at 26 h
[6] = target: T1, 5-HT transporter (h) (Homo sapiens, UniProt P31645); test: SafetyScreen44; settings: antagonist radioligand, specific binding, 1.0E-05 M
T1 construct: purchased Eurofins (SafetyScreen44)
T1 sequence (P31645 whole entry): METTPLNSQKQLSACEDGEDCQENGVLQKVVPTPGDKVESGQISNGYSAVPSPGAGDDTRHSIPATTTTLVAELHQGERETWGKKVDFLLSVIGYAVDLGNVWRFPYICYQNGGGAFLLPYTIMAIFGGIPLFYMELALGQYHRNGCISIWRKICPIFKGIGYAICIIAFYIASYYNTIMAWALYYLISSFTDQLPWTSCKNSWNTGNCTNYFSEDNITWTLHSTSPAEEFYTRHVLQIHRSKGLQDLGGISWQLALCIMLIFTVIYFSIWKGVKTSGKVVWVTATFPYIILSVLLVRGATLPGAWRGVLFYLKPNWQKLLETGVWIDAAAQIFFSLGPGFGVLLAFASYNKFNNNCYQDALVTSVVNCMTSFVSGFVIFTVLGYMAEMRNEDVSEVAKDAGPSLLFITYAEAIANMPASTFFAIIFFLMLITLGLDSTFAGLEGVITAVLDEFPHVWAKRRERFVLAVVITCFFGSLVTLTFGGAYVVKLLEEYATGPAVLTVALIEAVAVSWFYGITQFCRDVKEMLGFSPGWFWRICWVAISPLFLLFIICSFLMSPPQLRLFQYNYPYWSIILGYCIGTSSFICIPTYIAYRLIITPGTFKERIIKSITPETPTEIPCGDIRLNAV
Description: (§3) Off-target pharmacology was evaluated using the Eurofins SafetyScreen44 in vitro panel. […] Binding assays were performed using radioligand displacement, and enzyme or uptake assays measured inhibition of control activity using validated detection methods (scintillation counting, fluorimetry or photometry). Responses were expressed as percent inhibition of control binding or activity. Based on Eurofins interpretation guidelines, effects ≥50% were considered significant, effects between 25% and 50% weak to moderate, and effects <25% were not considered biologically relevant.

[7] = target: T2, 5-HT1A (h) (Homo sapiens, UniProt P08908); test: SafetyScreen44; settings: agonist radioligand, specific binding, 1.0E-05 M
T2 construct: purchased Eurofins (SafetyScreen44)
T2 sequence (P08908 whole entry): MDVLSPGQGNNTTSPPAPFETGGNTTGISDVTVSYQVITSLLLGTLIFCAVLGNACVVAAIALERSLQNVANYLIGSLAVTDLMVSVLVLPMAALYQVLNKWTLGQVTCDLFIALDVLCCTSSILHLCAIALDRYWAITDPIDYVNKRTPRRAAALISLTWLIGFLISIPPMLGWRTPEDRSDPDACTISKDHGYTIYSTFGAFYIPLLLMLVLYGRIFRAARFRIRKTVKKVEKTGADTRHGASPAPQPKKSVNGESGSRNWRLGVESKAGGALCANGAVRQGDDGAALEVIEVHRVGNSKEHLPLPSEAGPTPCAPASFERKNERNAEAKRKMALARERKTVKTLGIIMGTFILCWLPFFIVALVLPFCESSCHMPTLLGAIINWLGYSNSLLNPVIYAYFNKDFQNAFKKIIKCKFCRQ
Description: as §3

[8] = target: T3, D1 (h) (Homo sapiens, UniProt P21728); test: SafetyScreen44; settings: antagonist radioligand, specific binding, 1.0E-05 M
T3 construct: purchased Eurofins (SafetyScreen44)
T3 sequence (P21728 whole entry): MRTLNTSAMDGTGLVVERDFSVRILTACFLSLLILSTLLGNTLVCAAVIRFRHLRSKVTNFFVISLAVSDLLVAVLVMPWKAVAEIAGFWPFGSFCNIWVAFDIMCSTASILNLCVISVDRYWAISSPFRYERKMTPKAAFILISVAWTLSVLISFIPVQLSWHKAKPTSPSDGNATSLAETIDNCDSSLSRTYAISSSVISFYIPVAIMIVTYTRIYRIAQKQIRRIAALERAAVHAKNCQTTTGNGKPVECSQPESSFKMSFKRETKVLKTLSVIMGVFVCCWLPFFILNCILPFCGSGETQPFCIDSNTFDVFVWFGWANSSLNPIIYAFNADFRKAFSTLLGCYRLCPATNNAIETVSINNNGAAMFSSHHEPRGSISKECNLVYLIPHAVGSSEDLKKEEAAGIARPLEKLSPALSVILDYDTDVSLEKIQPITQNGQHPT
Description: as §3

[9] = target: T4, MAO-A (Rattus norvegicus, UniProt P21396); test: SafetyScreen44; settings: antagonist radioligand, specific binding, 1.0E-05 M
T4 construct: purchased Eurofins (SafetyScreen44)
T4 sequence (P21396 whole entry): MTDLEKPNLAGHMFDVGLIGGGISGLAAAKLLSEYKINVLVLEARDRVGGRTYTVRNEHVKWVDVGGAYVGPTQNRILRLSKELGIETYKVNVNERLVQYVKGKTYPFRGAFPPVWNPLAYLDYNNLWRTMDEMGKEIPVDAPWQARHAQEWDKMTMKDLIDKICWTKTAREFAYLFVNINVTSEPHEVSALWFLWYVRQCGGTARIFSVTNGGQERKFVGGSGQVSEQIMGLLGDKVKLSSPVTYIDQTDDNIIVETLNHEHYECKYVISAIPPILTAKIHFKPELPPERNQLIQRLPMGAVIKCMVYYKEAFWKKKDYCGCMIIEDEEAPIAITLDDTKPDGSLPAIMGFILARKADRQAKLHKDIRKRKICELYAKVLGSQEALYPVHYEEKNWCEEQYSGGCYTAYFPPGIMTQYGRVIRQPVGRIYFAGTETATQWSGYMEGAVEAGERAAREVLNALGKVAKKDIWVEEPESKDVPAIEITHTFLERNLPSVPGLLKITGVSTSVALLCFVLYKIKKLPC
Description: as §3

[10] = target: T5, Potassium Channel hERG (human) (Homo sapiens, UniProt Q12809); test: SafetyScreen44; settings: [3H] Dofetilide, specific binding, 1.0E-05 M
T5 construct: purchased Eurofins (SafetyScreen44)
T5 sequence (Q12809 whole entry): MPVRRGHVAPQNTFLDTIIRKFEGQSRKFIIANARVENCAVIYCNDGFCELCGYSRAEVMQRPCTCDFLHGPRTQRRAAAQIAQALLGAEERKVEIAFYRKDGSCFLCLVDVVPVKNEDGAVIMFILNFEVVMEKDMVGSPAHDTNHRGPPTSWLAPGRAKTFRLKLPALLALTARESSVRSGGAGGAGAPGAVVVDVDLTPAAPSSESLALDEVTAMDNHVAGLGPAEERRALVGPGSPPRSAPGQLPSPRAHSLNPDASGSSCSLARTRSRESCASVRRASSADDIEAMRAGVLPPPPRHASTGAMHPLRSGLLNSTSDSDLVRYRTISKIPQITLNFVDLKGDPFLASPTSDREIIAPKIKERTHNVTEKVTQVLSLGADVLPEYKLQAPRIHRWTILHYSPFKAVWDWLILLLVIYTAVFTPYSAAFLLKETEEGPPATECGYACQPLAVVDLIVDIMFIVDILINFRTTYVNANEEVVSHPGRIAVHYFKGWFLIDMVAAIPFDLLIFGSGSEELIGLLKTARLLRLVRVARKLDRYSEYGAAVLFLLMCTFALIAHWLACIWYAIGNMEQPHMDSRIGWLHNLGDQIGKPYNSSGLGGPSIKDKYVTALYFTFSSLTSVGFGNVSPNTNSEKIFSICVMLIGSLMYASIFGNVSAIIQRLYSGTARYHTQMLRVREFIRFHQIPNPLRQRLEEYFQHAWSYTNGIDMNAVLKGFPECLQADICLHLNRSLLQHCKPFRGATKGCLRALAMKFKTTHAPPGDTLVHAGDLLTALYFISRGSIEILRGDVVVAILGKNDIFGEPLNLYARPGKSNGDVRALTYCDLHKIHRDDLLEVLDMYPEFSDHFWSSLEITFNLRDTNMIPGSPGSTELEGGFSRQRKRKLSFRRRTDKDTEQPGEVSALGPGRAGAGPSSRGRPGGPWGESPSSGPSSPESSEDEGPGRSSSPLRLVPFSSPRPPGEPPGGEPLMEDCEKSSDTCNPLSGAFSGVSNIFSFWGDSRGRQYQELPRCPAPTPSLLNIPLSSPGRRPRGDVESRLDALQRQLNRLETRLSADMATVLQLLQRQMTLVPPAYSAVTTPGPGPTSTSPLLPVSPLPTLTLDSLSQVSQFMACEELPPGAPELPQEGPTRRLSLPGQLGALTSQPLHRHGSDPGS
Description: as §3

[11] = target: T6, V1a (h) (Homo sapiens, UniProt P37288); test: SafetyScreen44; settings: agonist radioligand, specific binding, 1.0E-05 M
T6 construct: purchased Eurofins (SafetyScreen44)
T6 sequence (P37288 whole entry): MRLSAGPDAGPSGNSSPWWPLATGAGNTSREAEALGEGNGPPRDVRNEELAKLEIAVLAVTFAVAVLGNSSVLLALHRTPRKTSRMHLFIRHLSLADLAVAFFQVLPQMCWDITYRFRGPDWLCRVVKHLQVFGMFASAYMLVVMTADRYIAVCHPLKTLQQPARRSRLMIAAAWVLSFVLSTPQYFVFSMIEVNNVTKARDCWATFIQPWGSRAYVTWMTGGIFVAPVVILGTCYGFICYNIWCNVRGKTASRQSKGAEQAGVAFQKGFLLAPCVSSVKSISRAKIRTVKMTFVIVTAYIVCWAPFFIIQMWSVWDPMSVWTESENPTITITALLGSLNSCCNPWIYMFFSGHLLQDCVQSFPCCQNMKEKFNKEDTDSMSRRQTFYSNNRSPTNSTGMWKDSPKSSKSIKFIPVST
Description: as §3

[12] = target: T7, beta 1 (h) (Homo sapiens, UniProt P08588); test: SafetyScreen44; settings: agonist radioligand, specific binding, 1.0E-05 M
T7 construct: purchased Eurofins (SafetyScreen44)
T7 sequence (P08588 whole entry): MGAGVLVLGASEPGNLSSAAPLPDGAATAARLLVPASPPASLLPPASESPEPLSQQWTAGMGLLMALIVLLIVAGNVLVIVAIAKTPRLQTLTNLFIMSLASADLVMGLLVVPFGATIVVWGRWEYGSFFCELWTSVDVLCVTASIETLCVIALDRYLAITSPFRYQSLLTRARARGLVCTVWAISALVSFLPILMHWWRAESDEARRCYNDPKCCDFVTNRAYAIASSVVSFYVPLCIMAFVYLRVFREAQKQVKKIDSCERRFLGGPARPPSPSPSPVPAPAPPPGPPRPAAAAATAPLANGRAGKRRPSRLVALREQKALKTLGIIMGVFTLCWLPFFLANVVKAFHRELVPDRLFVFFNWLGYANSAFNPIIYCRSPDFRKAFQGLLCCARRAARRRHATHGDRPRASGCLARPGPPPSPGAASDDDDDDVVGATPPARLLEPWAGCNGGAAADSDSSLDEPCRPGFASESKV
Description: as §3

[13] = target: T8, delta (DOP) (h) (Homo sapiens, UniProt P41143); test: SafetyScreen44; settings: agonist radioligand, specific binding, 1.0E-05 M
T8 construct: purchased Eurofins (SafetyScreen44)
T8 sequence (P41143 whole entry): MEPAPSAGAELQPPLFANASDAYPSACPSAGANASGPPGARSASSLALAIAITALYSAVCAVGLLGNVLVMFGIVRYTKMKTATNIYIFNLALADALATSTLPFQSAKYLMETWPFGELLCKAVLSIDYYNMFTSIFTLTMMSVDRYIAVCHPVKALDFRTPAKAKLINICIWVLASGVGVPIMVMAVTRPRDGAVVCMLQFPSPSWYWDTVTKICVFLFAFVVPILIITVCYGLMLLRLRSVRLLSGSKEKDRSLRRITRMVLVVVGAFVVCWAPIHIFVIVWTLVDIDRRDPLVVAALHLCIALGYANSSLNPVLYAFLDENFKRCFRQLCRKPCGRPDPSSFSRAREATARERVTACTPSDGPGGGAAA
Description: as §3

[14] = Acinetobacter baumannii, ATCC17978, ATCC 17978, read-out: MIC
[15] = Acinetobacter baumannii, BAA1709, BAA-1709, read-out: MIC
[16] = Acinetobacter baumannii, BAA1710, BAA-1710 (AYE), read-out: MIC
[17] = Acinetobacter baumannii, BAA2093, BAA-2093, read-out: MIC
[18] = Acinetobacter baumannii, NCTC10303, NCTC 10303, read-out: MIC
[19] = Acinetobacter baumannii, NCTC12156, NCTC 12156, read-out: MIC
[20] = Acinetobacter baumannii, NCTC13302, NCTC 13302, oxa24, read-out: MIC
[21] = Acinetobacter baumannii, NCTC13424, NCTC 13424, oxa23, read-out: MIC
[22] = Acinetobacter baumannii, UKA1, oxa23, read-out: MIC
[23] = Acinetobacter baumannii, UKA2, Low resistance, read-out: MIC
[24] = Acinetobacter baumannii, UKA9, read-out: MIC
[25] = Acinetobacter baumannii, UKA12, oxa23, read-out: MIC
[26] = Acinetobacter baumannii, UKA13, oxa23, read-out: MIC
[27] = Acinetobacter baumannii, UKA15, oxa23, read-out: MIC
[28] = Acinetobacter baumannii, UKA19, read-out: MIC
[29] = Acinetobacter baumannii, W1, read-out: MIC
[30] = Klebsiella pneumoniae, NCTC13368, NCTC 13368, read-out: MIC

`C[C@H]1COc2c(N3CCN(C)CC3)c(F)cc3c(=O)c(C(=O)O)cn1c23` [Levofloxacin, (S)-9-Fluoro-3-methyl-10-(4-methylpiperazin-1-yl)-7-oxo-2,3-dihydro-7H-[1,4]oxazino[2,3,4-ij]quinoline-6-carboxylic acid, reference compound] gave an MIC ([1]; Acinetobacter baumannii, A118) of at most 0.06 mg/L, an MIC [1, 14] of 0.125 mg/L (≈ 0.346 µM) and an MIC [1, 15] of 0.125 mg/L (≈ 0.346 µM). For the same molecule, the MIC [1, 16] was 4 mg/L (≈ 11.1 µM), the MIC [1, 17] was 0.06 mg/L (≈ 0.166 µM) and the MIC [1, 18] was 0.125 mg/L (≈ 0.346 µM). The MIC [1, 19] was 1 mg/L (≈ 2.77 µM), the MIC [1, 20] was 4 mg/L (≈ 11.1 µM) and the MIC [1, 21] was 64 mg/L (≈ 177 µM). The MIC [1, 22] was 2 mg/L (≈ 5.53 µM), the MIC [1, 23] was 4 mg/L (≈ 11.1 µM) and the MIC [1, 24] was 0.125 mg/L (≈ 0.346 µM). The MIC [1, 25] was 8 mg/L (≈ 22.1 µM), the MIC [1, 26] was 16 mg/L (≈ 44.3 µM) and the MIC [1, 27] was 4 mg/L (≈ 11.1 µM). The MIC [1, 28] was 1 mg/L (≈ 2.77 µM), the MIC [1, 29] was 8 mg/L (≈ 22.1 µM) and the MIC50 ([1]; Acinetobacter baumannii, panel of 25 A. baumannii strains) was 4 mg/L (≈ 11.1 µM). For the same molecule, the MIC ([2]; Klebsiella pneumoniae) was 0.125 mg/L (≈ 0.346 µM), the MIC [2, 30] was 2 mg/L (≈ 5.53 µM) and the MIC ([2]; TW3) was 0.125 mg/L (≈ 0.346 µM). The Agar MIC [3] was 1 mg/L, the Agar MIC [4] was 0.03 mg/L and the “bacterial counts in thigh” value [5] was 4.51 log10 CFU/g.

`C[C@H]1COc2c(N3CC[C@@H](Nc4ncccn4)C3)c(F)cc3c(=O)c(C(=O)O)cn1c23` [Compound 46, (S)-9-Fluoro-3-methyl-7-oxo-10-((R)-3-(pyrimidin-2-ylamino)pyrrolidin-1-yl)-2,3-dihydro-7H-[1,4]oxazino[2,3,4-ij]quinoline-6-carboxylic acid] showed an MIC ([1]; Acinetobacter baumannii, 86, oxa23, read-out: MIC) of 8 mg/L (≈ 18.8 µM), an MIC ([1]; Acinetobacter baumannii, 96, oxa23, read-out: MIC) of 4 mg/L (≈ 9.4 µM) and an MIC ([1]; Acinetobacter baumannii, 113, oxa23, read-out: MIC) of 4 mg/L (≈ 9.4 µM). For the same molecule, the MIC ([1]; Acinetobacter baumannii, A118, read-out: MIC) was at most 0.06 mg/L, the MIC ([1]; Acinetobacter baumannii, A318, read-out: MIC) was 8 mg/L (≈ 18.8 µM) and the MIC ([1]; Acinetobacter baumannii, A319, read-out: MIC) was 8 mg/L (≈ 18.8 µM). The MIC ([1]; Acinetobacter baumannii, A600 colR, read-out: MIC) was 4 mg/L (≈ 9.4 µM), the MIC ([1]; Acinetobacter baumannii, A601 colS, read-out: MIC) was at most 0.06 mg/L and the MIC ([1]; Acinetobacter baumannii, AB01335 adeG183::T26) was 4 mg/L (≈ 9.4 µM). It also gave an MIC ([1]; Acinetobacter baumannii, AB5075-UW, read-out: MIC) of 4 mg/L (≈ 9.4 µM), an MIC ([1]; Acinetobacter baumannii, AB05215 adeS132::T26) of 4 mg/L (≈ 9.4 µM) and an MIC ([1]; Acinetobacter baumannii, AB05218 adeS141::T26) of 4 mg/L (≈ 9.4 µM). It also gave an MIC ([1]; Acinetobacter baumannii, AB05219 adeR103::T26) of 4 mg/L (≈ 9.4 µM), an MIC ([1]; Acinetobacter baumannii, AB05222 adeR160::T101) of 4 mg/L (≈ 9.4 µM) and an MIC ([1]; Acinetobacter baumannii, AB05226 adeA165::T26) of 4 mg/L (≈ 9.4 µM). For the same molecule, the MIC ([1]; Acinetobacter baumannii, AB05227 adeA138::T26) was 2 mg/L (≈ 4.7 µM), the MIC ([1]; Acinetobacter baumannii, AB05228 adeB150::T26) was 1 mg/L (≈ 2.35 µM) and the MIC ([1]; Acinetobacter baumannii, AB05230 adeB181::T26) was 1 mg/L (≈ 2.35 µM). It also gave an MIC [1, 14] of at most 0.25 mg/L, an MIC [1, 15] of 0.125 mg/L (≈ 0.294 µM) and an MIC [1, 16] of 4 mg/L (≈ 9.4 µM). For the same molecule, the MIC [1, 17] was 0.03 to 0.06 mg/L (≈ 0.0705 to 0.141 µM), the MIC [1, 18] was at most 0.06 mg/L and the MIC [1, 19] was 0.125 mg/L (≈ 0.294 µM). For the same molecule, the MIC [1, 20] was 4 mg/L (≈ 9.4 µM), the MIC [1, 21] was over 64 mg/L and the MIC ([1]; Acinetobacter baumannii, T strain, read-out: MIC) was 8 mg/L (≈ 18.8 µM). It also gave an MIC [1, 22] of 4 mg/L (≈ 9.4 µM), an MIC [1, 23] of 8 mg/L (≈ 18.8 µM) and an MIC [1, 24] of at most 0.06 mg/L. It also gave an MIC [1, 25] of 2 mg/L (≈ 4.7 µM), an MIC [1, 26] of 2 mg/L (≈ 4.7 µM) and an MIC [1, 27] of 1 mg/L (≈ 2.35 µM). The MIC [1, 28] was 0.25 mg/L (≈ 0.588 µM), the MIC [1, 29] was 4 mg/L (≈ 9.4 µM) and the MIC ([2]; Klebsiella pneumoniae, M6, read-out: MIC) was 1 to 2 mg/L (≈ 2.35 to 4.7 µM). For the same molecule, the MIC [2, 30] was 8 mg/L (≈ 18.8 µM), the MIC ([2]; Klebsiella pneumoniae, TW3, read-out: MIC) was 1 mg/L (≈ 2.35 µM) and the Agar MIC [4] was 0.5 mg/L. For the same molecule, the “% Inhibition” value [6] was -16.9663%, the “% Inhibition” value [7] was -3.77% and the inhibition at 10 µM [8] was -15.4%. For the same molecule, the “% Inhibition” value [9] was -9.13%, the “% Inhibition” value [10] was -0.2461% and the “% Inhibition” value [11] was -12.5662%. For the same molecule, the “% Inhibition” value [12] was 1.921% and the inhibition at 10 µM [13] was 2.16%.
